We go through one molecule from US12708627B2, “Combination therapy for VAV3 cancer” (Children's Hospital Medical Center, priority 2021, dated 2026).

Data set [1] concerns p190- and p210-BCR-ABL1 expressing Ba/F3 cells. In words: Survival of BCR-ABL1 expressing Ba/F3 cells, trypan blue exclusion. The format is cell-based, murine. Conditions: for EC50: BaF3. The text has this: Ba/F3 cells are bone marrow-derived, IL-3 dependent, murine pro-B cells widely used in studying the mechanism of leukemia initiation and progression and targeted therapy discovery^1. NALM-1 are human lymphoblastic cells that express p190-BCR-ABL1 but not Ikaros (IKZF1)^2. Applicant treated Ba/F3 cells transduced with retrovirus encoding either p190- or p210-BCR-ABL1 or Mieg3 empty vector^3 control as before.
MDA-MB-231 cells were maintained in IMEM (Invitrogen) supplemented with 10% FBS, 1% penicillin/streptomycin, and 1% amphotericin B. Ba/F3 cells were cultured in RPMI (GIBCO) supplemented with 10% FBS and IL-3 (10 ng/ml), NALM-1 cells were maintained in RPMI supplemented with 15% FBS. HEK293T cells were maintained with DMEM supplemented with 10% FBS and 1% penicillin/streptomycin. All cell lines were cultured at 37° C. in a 5% CO2 humidified incubator. Cell viability was assessed by trypan blue exclusion assay as previously described^4. Cytokines were from Peprotech.

Data set [2] deals with Ba/F3 cells transduced with p190-BCR-ABL1. Briefly: Colony formation assay in soft agar. The format is cell-based, murine.
Data set [3] relates to pPAK1/2 (T423/T402) and pBAD (S136) in p190-BCR-ABL1 expressing Ba/F3 cells. In words: Kinetics of PAK1/2 and BAD dephosphorylation by immunoblot. The format is cell-based, murine. Conditions: 3 μM, early time points. As to the method:
(§1) GAPDH was used as loading control.
To determine the kinetics of IODVA1-promoted effector dephosphorylation, Applicant focused on the activity of the RAC pro-survival effectors PAK1/2 and the RAC pro-apoptotic member of the Bcl-2 family, BAD, a mediator of aggressive BCR-ABL1-expressing leukemia^10,11. […] The observed difference in deactivation times, i.e. 15 vs. 5 min, is likely due to the difference and sensitivity of the techniques used to detect the activation state of these proteins, e.g. pull-down followed by immunoblotting vs. direct immunoblotting.
On the technique in general: A western blot detects proteins with antibodies after separation by electrophoresis.

The next data set deals with T1, RhoGDI1 (Homo sapiens, UniProt P52565).
T1 construct: made in house; host or cells: RAC1: TNAO38 insect cells
Briefly: Liposome sedimentation assay, displacement of prenylated RAC1-GDP by GST-RhoGDI1. Type of data set: biochemical. The conditions noted are these: IODVA1 2 μM. As to the method:
as §1
Samples were centrifuged at 20,000×g for 20 min at 4° C. and pellet (p) and supernatant(s) fractions were collected and immunoblotted for RAC1. […] Applicant then measured the interaction between fluorescently labeled RAC1 and RhoGDI1 using stopped-flow fast kinetics techniques.
Prenylated RAC1-GDP (1 μM) was added to liposomes suspended in protein buffer (20 mM Hepes, pH 7.4, 150 mM NaCl, 5 mM MgCl2, 3 mM DTT) and incubated for 20 min on ice. […] The samples were then centrifuged at 20,000×g for 20 min at 4° C. Pellet and supernatant fractions were collected, separated on SDS-PAGE and immunoblotted for RAC1.

Data set [4] relates to pVAV3 (pTyr173), pVAV1 (pTyr174) in PDX B-ALL cells. Briefly: pVAV3, pPAK1, pVAV1 immunoblot of PDX cells ex vivo. The format is cell-based, human. The conditions noted are these: 1 μM, 30 min. The source says:
In general, pPAK1 followed the same trend.

For data set [5] the following is noted: previously evaluated; cited from earlier work.
The target in data set [6] is T2, VAV3 (Homo sapiens, UniProt Q9UKW4).
T2 sequence (Q9UKW4 1-847): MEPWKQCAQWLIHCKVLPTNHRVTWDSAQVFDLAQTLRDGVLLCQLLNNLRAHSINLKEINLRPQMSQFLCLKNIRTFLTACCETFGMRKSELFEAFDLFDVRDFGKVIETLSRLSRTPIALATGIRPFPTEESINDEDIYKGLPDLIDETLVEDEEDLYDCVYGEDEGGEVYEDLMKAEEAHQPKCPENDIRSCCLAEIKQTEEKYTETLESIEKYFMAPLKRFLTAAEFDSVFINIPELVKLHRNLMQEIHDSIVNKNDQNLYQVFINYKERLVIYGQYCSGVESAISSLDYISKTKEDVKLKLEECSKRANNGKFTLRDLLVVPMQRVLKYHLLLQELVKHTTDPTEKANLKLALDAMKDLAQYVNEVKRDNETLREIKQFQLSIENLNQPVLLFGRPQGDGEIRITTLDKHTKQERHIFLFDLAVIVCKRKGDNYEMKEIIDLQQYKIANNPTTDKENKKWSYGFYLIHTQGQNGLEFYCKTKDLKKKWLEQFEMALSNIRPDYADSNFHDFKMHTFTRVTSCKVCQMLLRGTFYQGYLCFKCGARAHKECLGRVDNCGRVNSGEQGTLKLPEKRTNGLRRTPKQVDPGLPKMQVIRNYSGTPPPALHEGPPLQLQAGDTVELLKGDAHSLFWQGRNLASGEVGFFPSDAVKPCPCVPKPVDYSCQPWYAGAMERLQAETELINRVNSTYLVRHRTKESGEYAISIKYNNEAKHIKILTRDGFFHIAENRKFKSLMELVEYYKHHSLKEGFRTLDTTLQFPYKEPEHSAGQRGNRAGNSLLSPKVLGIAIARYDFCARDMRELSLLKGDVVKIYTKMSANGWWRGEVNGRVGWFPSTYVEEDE
Briefly: Phosphorylated VAV3 (pY173) immunoblot in MDA-MB-231 cells. The format is cell-based. More on the design: these cells express high endogenous levels of VAV3; endogenous in cells; host or cells: MDA-MB-231. Conditions: 3 μM, 15 min.

Data set [7] addresses T2, VAV3. In words: pVAV3 immunohistochemistry of MDA-MB-231 xenograft tumors. The format is in vivo, mice. Conditions: versus vehicle control. More on the design: Immunohistochemical staining of phosphorylated VAV3 in tissue derived from MDA-MB-231 xenografts; from tissue; host or cells: MDA-MB-231 xenograft tumour sections. As to the method: (7A) Immunoblot—efficiency of shRNA-mediated VAV3 knockdown in MDA-MB-231 triple negative breast cancer.
Histology: Embedded tissues were cut into 4 μm sections then immunohistochemically stained using the Mouse on Mouse kit (MoM kit, Vector Laboratories). Tissue sections were subjected to sodium citrate antigen retrieval, pretreated with 0.3% hydrogen peroxide, blocked according to kit directions, and incubated with an antibody to phosphorylated VAV3 (Abcam) and HRP-conjugated anti-rabbit secondary (Vector Laboratories). Staining was completed with the DAB Peroxidase kit (Vector Laboratories) and counterstained with hematoxylin. Tissue sections were coverslipped with Cytoseal 60 and images acquired with a Nikon Eclipse Ci microscope.

Where two headings read alike, the source gives them in different places.

T1 sequence (P52565 whole entry, species assumed): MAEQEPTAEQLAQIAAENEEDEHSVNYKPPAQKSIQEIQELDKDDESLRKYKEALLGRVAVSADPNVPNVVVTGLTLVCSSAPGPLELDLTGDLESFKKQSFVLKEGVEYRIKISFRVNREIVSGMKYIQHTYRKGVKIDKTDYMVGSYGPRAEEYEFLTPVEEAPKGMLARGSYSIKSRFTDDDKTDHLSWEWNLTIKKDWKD

Consider `OC1(c2ccccc2)NC(=Nc2nc3ccccc3[nH]2)N=C1c1ccccn1` (centres unmarked) [IODVA1], for which the “cell death after washout” value in data set [1] (1 μM for 24 h then washed, by day 3) is reported as “all cells were dead”. Further, the cytotoxicity at 3 µM in data set [1] (Mus musculus, BaF3, 24 h, 3 μM, day 1, SEM, N=9, read-out: reduction of viability) stood at 75 ± 4%. The EC50 in data set [1] (Mus musculus, grown in the presence of IL-3, 72-hour time point, read-out: half maximal effective concentration (EC50), cell survival) turned out to be 380 nM; in data set [1] (Mus musculus, p190-BCR-ABL1 Ba/F3 cells, IL-3 withdrawal, read-out: EC50, cell survival), 9 nM. Besides, the “colony size in soft agar” value in data set [2] (1 μM) is given as “smaller than vehicle DMSO control”. Besides, the “colony formation in soft agar” value in data set [2] (10 μM) was “completely abolished colony formation”. Besides, the “BAD S136 phosphorylation” value in data set [3] is “decreased BAD S136 phosphorylation beyond the 15 min time point”. For the same molecule, in data set [3], the “phosphorylation of PAK1/2 T423/T402” value is reported as “decreases sharply beyond the 5 min treatment time”. In addition, the “prenylated-RAC1 displacement by RhoGDI1 from liposomes” value at RhoGDI1 is “did not affect”. In addition, in data set [4] (any of the patient samples tested), the pVAV1 levels entry is given as “unchanged”. Further, the “decrease of levels of pVAV3” value in data set [4] (IODVA1-sensitive PDX cells) came out at 90%. For the same molecule, the hematological toxicity entry in data set [5] is listed as “no adverse changes in body weight or hematological parameters”. Also, the “phosphorylated VAV3 (pY173) signal” value at VAV3 [6] is “significant decrease”. Also, at VAV3 [7], the “pVAV3 staining of tumor sections” value was “significant decrease”.
